Test results: PMC12947280, “An Antifungal with a Novel Mechanism of Action Discovered via Resistance Gene-Guided Genome Mining” (ACS Central Science, 2026)
Converted amounts (≈) assume the structure as drawn. Where two headings read alike, the source gives them in different places.

Legend:
Experiment in all cases: Antifungal screening, broth microdilution MIC
Format in all cases: cell-based
Aspergillus fumigatus = conditions: for MIC: Aspergillus fumigatus
Description: (§1) Antifungal screening of 1
(§2) Antifungal screening was performed by Micromyx, LLC (Kalamazoo, Michigan, USA). Test organisms were either reference strains from the American Type Culture Collection (ATCC; Manassas, VA), the Centers for Disease Control and Prevention (CDC; Atlanta, GA), or clinical isolates from the Micromyx (MMX) collection. Upon receipt at Micromyx, the isolates were streaked under suitable conditions onto agar medium appropriate to each organism. The yeast isolates were incubated for 24 hr at 35 °C and the fungi were incubated for 7 to 13 days at 35 °C, as appropriate. Colonies harvested from these growth plates were resuspended in the appropriate medium containing a cryoprotectant. Aliquots of each suspension were then frozen […]
(§3) Prior to testing, the yeast isolates were streaked from frozen vials onto Sabouraud Dextrose Agar (SAB; Becton Dickenson [BD]/BBL; Sparks, MD, Lot No. 2228660) and were incubated at 35°C for 24 hr. Additional fungal isolates were streaked from frozen vials onto potato dextrose agar (BD/BBL; Sparks, MD, Lot No. 2046481) and incubated under optimal conditions for […]
(§4) All MIC measurements were performed in RPMI1640 from Hyclone Laboratories (Logan, UT;
(§5) Cat. No. SH3001104; Lot No. AC10257966A) buffered with MOPS to pH-7 from Millipore […]
(§6) MIC values were determined using a broth microdilution procedure described by CLSI. 5,6.
(§7) Automated liquid handlers (Multidrop 384, Labsystems, Helsinki, Finland; Biomek 3000 and […]
(§8) Biomek FX, Beckman Coulter Fullerton CA) were used to conduct serial dilutions and liquid […]
(§9) Solutions of 1 were added in an 11 point 2x serial dilution in DMSO with a maximum tested concentration of 32 μg/ml in the culture medium. Drug solution was added at 1% v/v into 200 μl […]
(§10) A standardized inoculum of each test organism was prepared in appropriate media per CLSI methods.5,6 The plates were then inoculated with 10 µL of the diluted inoculum using the Biomek 3000 from low to high drug concentration, resulting in a final concentration of approximately 0.5 to 2.5 x 10^3 CFU/mL for yeast and 0.2 to 2.5 x 10^4 CFU/mL for the other fungi. An un-inoculated plate was incubated for the purpose of assessing solubility of the drug […]
(§11) The plates were stacked 3 to 4 high, covered with a sterile lid on the top plate, and incubated aerobically at 35 °C for 24, 48, and 72 h. For yeast, both the MIC based on complete inhibition and 50% inhibition were reported at 24 and 48 h. For other fungal isolates, the MIC values were recorded at 24 and 48 hr and were based on complete inhibition and 50% inhibition.
(§12) Intact protein LCMS analysis
(§13) 10 μM of recombinant S. cerevisiae ALS was incubated with 10 μM compound 1 in buffer (50 mM Tris pH 7.5, 100 mM KCl, 10 uM FAD, 1 mM TPP, 10 mM MgCl2 (with 2.5% DMSO from compound)) at 22 °C for 30 min. Unreacted 1 was removed by passing the reaction mixture through a 30 kDa MWCO filter (Millipore). The collected protein was then denatured and reduced by incubation with 6 M urea and 10 mM DTT at 37 °C for 1 h followed by 20 mM iodoacetamide alkylation for 30 min in dark. This reaction mixture then underwent buffer exchange into 100 mM Tris-HCl pH 8.0 and 10 mM CaCl2 buffer using a 30 kDa MWCO filter.
(§14) The protein was then incubated with sequencing grade chymotrypsin (Promega) (15:1,w/w) for […]
(§15) After digestion, the peptide mixture was immediately analysed by LC-MS/MS using a Waters I-class UPLC equipped with an ACQUITY UPLC BEH C18 column (2.1x50 mm, 1.7 µm, Waters) at 50 °C coupled to a Waters Synapt G2Si MS. The sample was injected and subjected to an LC gradient starting from 0.5% mobile phase B (ACN with 0.1% formic acid) for 5 min with linear increase to 40% B over 35 min. Mobile phase A was 0.1% formic acid water. Flow rate was maintained at 0.3 ml/min. MS/MS data was acquired in positive ionization mode with data dependent MS/MS acquisition. Peptide mapping was performed with PEAKs Studio 8.0 (Bioinformatics Solutions Inc.) followed by manual review to identify peptides putatively modified by covalent addition of 1. […]

[1] = tested on: Mucor circinelloides ATCC 24905; conditions: for MIC: ATCC24905, Mucor circinelloides ATCC 24905
Description: as §1, §2, §3, §4, §5, §6, §7, §8, §9, §10, §11, §12, §13, §14, §15

[2] = tested on: Scedosporium apiospermum ATCC MYA-3635; conditions: for MIC: Scedosporium apiospermum ATCC MYA-3635
Description: as §1, §2, §3, §4, §5, §6, §7, §8, §9, §10, §11, §12, §13, §14, §15

[3] = tested on: Scedosporium prolificans ATCC 11274; conditions: for MIC: Lomentospora prolificans, ATCC11274, Scedosporium prolificans ATCC 11274
Description: as §1, §2, §3, §4, §5, §6, §7, §8, §9, §10, §11, §12, §13, §14, §15

[4] = 24 hr, read-out: MIC 100% growth inhibition
[5] = 24 hr, read-out: MIC >50% growth inhibition
[6] = 48 hr, read-out: MIC 100% growth inhibition
[7] = 48 hr, read-out: MIC >50% growth inhibition

With CCCC1C(C)=CC2CC=CC3(C)C2C1C(=O)C31C(=O)NC(CCCO)C1=O (stereo not drawn) [compound 1] the “MIC (Table S5)” value (Aspergillus fumigatus; A. fumigatus, species summary) was 2-16, the MIC (Aspergillus fumigatus; 24 h, read-out: MIC 100% growth inhibition, Aspergillus fumigatus ATCC MYA-3626, 24 hr) was 4 µg/mL (≈ 10.4 µM) and the MIC (Aspergillus fumigatus; 24 h, read-out: MIC 100% growth inhibition, Aspergillus fumigatus CDC 0731 (azole resistant), 24 hr) was 16 µg/mL (≈ 41.5 µM). For the same compound, the MIC (Aspergillus fumigatus; 24 h, read-out: MIC 100% growth inhibition, Aspergillus fumigatus CDC 0732 (azole resistant), 24 hr) was 8 µg/mL (≈ 20.8 µM), the MIC (Aspergillus fumigatus; 24 h, read-out: MIC 100% growth inhibition, Aspergillus fumigatus CDC 0733 (azole resistant), 24 hr) was 8 µg/mL (≈ 20.8 µM) and the MIC (Aspergillus fumigatus; 24 h, read-out: MIC 100% growth inhibition, Aspergillus fumigatus CDC 0734 (azole resistant), 24 hr) was 8 µg/mL (≈ 20.8 µM). It also gave an MIC (Aspergillus fumigatus; 24 h, read-out: MIC 100% growth inhibition, Aspergillus fumigatus CDC 0735 (azole resistant), 24 hr) of 8 µg/mL (≈ 20.8 µM), an MIC (Aspergillus fumigatus; 24 h, read-out: MIC 100% growth inhibition, Aspergillus fumigatus CDC 0736 (azole susceptible), 24 hr) of 8 µg/mL (≈ 20.8 µM) and an MIC (Aspergillus fumigatus; 24 h, read-out: MIC 100% growth inhibition, Aspergillus fumigatus CDC 0737 (azole susceptible), 24 hr) of 16 µg/mL (≈ 41.5 µM). For the same compound, the MIC (Aspergillus fumigatus; 24 h, read-out: MIC 100% growth inhibition, Aspergillus fumigatus CDC 0738 (azole susceptible), 24 hr) was 2 µg/mL (≈ 5.19 µM), the MIC (Aspergillus fumigatus; 24 h, read-out: MIC 100% growth inhibition, Aspergillus fumigatus CDC 0739 (azole susceptible), 24 hr) was 4 µg/mL (≈ 10.4 µM) and the MIC (Aspergillus fumigatus; 24 h, read-out: MIC 100% growth inhibition, Aspergillus fumigatus CDC 0740 (azole susceptible), 24 hr) was 4 µg/mL (≈ 10.4 µM). The MIC (Aspergillus fumigatus; 24 h, read-out: MIC >50% growth inhibition, Aspergillus fumigatus ATCC MYA-3626, 24 hr) was 4 µg/mL (≈ 10.4 µM), the MIC (Aspergillus fumigatus; 24 h, read-out: MIC >50% growth inhibition, Aspergillus fumigatus CDC 0731 (azole resistant), 24 hr) was 2 µg/mL (≈ 5.19 µM) and the MIC (Aspergillus fumigatus; 24 h, read-out: MIC >50% growth inhibition, Aspergillus fumigatus CDC 0732 (azole resistant), 24 hr) was 2 µg/mL (≈ 5.19 µM). For the same compound, the MIC (Aspergillus fumigatus; 24 h, read-out: MIC >50% growth inhibition, Aspergillus fumigatus CDC 0733 (azole resistant), 24 hr) was 4 µg/mL (≈ 10.4 µM), the MIC (Aspergillus fumigatus; 24 h, read-out: MIC >50% growth inhibition, Aspergillus fumigatus CDC 0734 (azole resistant), 24 hr) was 4 µg/mL (≈ 10.4 µM) and the MIC (Aspergillus fumigatus; 24 h, read-out: MIC >50% growth inhibition, Aspergillus fumigatus CDC 0735 (azole resistant), 24 hr) was 4 µg/mL (≈ 10.4 µM). It also gave an MIC (Aspergillus fumigatus; 24 h, read-out: MIC >50% growth inhibition, Aspergillus fumigatus CDC 0736 (azole susceptible), 24 hr) of 4 µg/mL (≈ 10.4 µM), an MIC (Aspergillus fumigatus; 24 h, read-out: MIC >50% growth inhibition, Aspergillus fumigatus CDC 0737 (azole susceptible), 24 hr) of 2 µg/mL (≈ 5.19 µM) and an MIC (Aspergillus fumigatus; 24 h, read-out: MIC >50% growth inhibition, Aspergillus fumigatus CDC 0738 (azole susceptible), 24 hr) of 1 µg/mL (≈ 2.59 µM). The MIC (Aspergillus fumigatus; 24 h, read-out: MIC >50% growth inhibition, Aspergillus fumigatus CDC 0739 (azole susceptible), 24 hr) was 1 µg/mL (≈ 2.59 µM), the MIC (Aspergillus fumigatus; 24 h, read-out: MIC >50% growth inhibition, Aspergillus fumigatus CDC 0740 (azole susceptible), 24 hr) was 1 µg/mL (≈ 2.59 µM) and the MIC (Aspergillus fumigatus; 48 h, read-out: MIC 100% growth inhibition, Aspergillus fumigatus ATCC MYA-3626, 48 hr) was over 32 µg/mL. It also gave an MIC (Aspergillus fumigatus; 48 h, read-out: MIC 100% growth inhibition, Aspergillus fumigatus CDC 0731 (azole resistant), 48 hr) of over 32 µg/mL, an MIC (Aspergillus fumigatus; 48 h, read-out: MIC 100% growth inhibition, Aspergillus fumigatus CDC 0732 (azole resistant), 48 hr) of over 32 µg/mL and an MIC (Aspergillus fumigatus; 48 h, read-out: MIC 100% growth inhibition, Aspergillus fumigatus CDC 0733 (azole resistant), 48 hr) of over 32 µg/mL. The MIC (Aspergillus fumigatus; 48 h, read-out: MIC 100% growth inhibition, Aspergillus fumigatus CDC 0734 (azole resistant), 48 hr) was over 32 µg/mL, the MIC (Aspergillus fumigatus; 48 h, read-out: MIC 100% growth inhibition, Aspergillus fumigatus CDC 0735 (azole resistant), 48 hr) was over 32 µg/mL and the MIC (Aspergillus fumigatus; 48 h, read-out: MIC 100% growth inhibition, Aspergillus fumigatus CDC 0736 (azole susceptible), 48 hr) was over 32 µg/mL. For the same compound, the MIC (Aspergillus fumigatus; 48 h, read-out: MIC 100% growth inhibition, Aspergillus fumigatus CDC 0737 (azole susceptible), 48 hr) was over 32 µg/mL, the MIC (Aspergillus fumigatus; 48 h, read-out: MIC 100% growth inhibition, Aspergillus fumigatus CDC 0738 (azole susceptible), 48 hr) was over 32 µg/mL and the MIC (Aspergillus fumigatus; 48 h, read-out: MIC 100% growth inhibition, Aspergillus fumigatus CDC 0739 (azole susceptible), 48 hr) was 32 µg/mL (≈ 83 µM). It also gave an MIC (Aspergillus fumigatus; 48 h, read-out: MIC 100% growth inhibition, Aspergillus fumigatus CDC 0740 (azole susceptible), 48 hr) of 32 µg/mL (≈ 83 µM), an MIC (Aspergillus fumigatus; 48 h, read-out: MIC >50% growth inhibition, Aspergillus fumigatus ATCC MYA-3626, 48 hr) of over 32 µg/mL and an MIC (Aspergillus fumigatus; 48 h, read-out: MIC >50% growth inhibition, Aspergillus fumigatus CDC 0731 (azole resistant), 48 hr) of over 32 µg/mL. The MIC (Aspergillus fumigatus; 48 h, read-out: MIC >50% growth inhibition, Aspergillus fumigatus CDC 0732 (azole resistant), 48 hr) was over 32 µg/mL, the MIC (Aspergillus fumigatus; 48 h, read-out: MIC >50% growth inhibition, Aspergillus fumigatus CDC 0733 (azole resistant), 48 hr) was over 32 µg/mL and the MIC (Aspergillus fumigatus; 48 h, read-out: MIC >50% growth inhibition, Aspergillus fumigatus CDC 0734 (azole resistant), 48 hr) was over 32 µg/mL. It also gave an MIC (Aspergillus fumigatus; 48 h, read-out: MIC >50% growth inhibition, Aspergillus fumigatus CDC 0735 (azole resistant), 48 hr) of 32 µg/mL (≈ 83 µM), an MIC (Aspergillus fumigatus; 48 h, read-out: MIC >50% growth inhibition, Aspergillus fumigatus CDC 0736 (azole susceptible), 48 hr) of 16 µg/mL (≈ 41.5 µM) and an MIC (Aspergillus fumigatus; 48 h, read-out: MIC >50% growth inhibition, Aspergillus fumigatus CDC 0737 (azole susceptible), 48 hr) of 16 µg/mL (≈ 41.5 µM). The MIC (Aspergillus fumigatus; 48 h, read-out: MIC >50% growth inhibition, Aspergillus fumigatus CDC 0738 (azole susceptible), 48 hr) was 32 µg/mL (≈ 83 µM), the MIC (Aspergillus fumigatus; 48 h, read-out: MIC >50% growth inhibition, Aspergillus fumigatus CDC 0739 (azole susceptible), 48 hr) was 16 µg/mL (≈ 41.5 µM) and the MIC (Aspergillus fumigatus; 48 h, read-out: MIC >50% growth inhibition, Aspergillus fumigatus CDC 0740 (azole susceptible), 48 hr) was 16 µg/mL (≈ 41.5 µM). The MIC [1, 4] was 0.5 µg/mL (≈ 1.3 µM), the MIC [1, 5] was 0.12 µg/mL (≈ 0.311 µM) and the MIC [1, 6] was 16 µg/mL (≈ 41.5 µM). The MIC [1, 7] was 4 µg/mL (≈ 10.4 µM), the “MIC (Table S5)” value ([1]; Mucor circinelloides, species summary) was 0.5 and the MIC [2, 4] was 8 µg/mL (≈ 20.8 µM). It also gave an MIC [2, 5] of 1 µg/mL (≈ 2.59 µM), an MIC [2, 6] of over 32 µg/mL and an MIC [2, 7] of over 32 µg/mL. The “MIC (Table S5)” value ([2]; Scedosporium apiospermum, species summary) was 8, the MIC [3, 4] was 8 µg/mL (≈ 20.8 µM) and the MIC [3, 5] was 2 µg/mL (≈ 5.19 µM). The MIC [3, 6] was over 32 µg/mL, the MIC [3, 7] was over 32 µg/mL and the “MIC (Table S5)” value ([3]; Scedosporium prolificans, species summary) was 8.
